The conditions of data set [1]: mouse, in vivo, sc, 50 mg/kg.
For data set [2] the following is noted: rat, in vivo, sc, 50 mg/kg.
For data set [3] the following is noted: mouse, in vivo, sc, 50 mg/kg. The source holds these as a separate data set.
The conditions of data set [4]: rat, in vivo, sc, 50 mg/kg. This is another data set of the same source.
The conditions of data set [5]: rat, in vivo, sc, 50 mg/kg. This is another data set of the same source.
The conditions of data set [6]: mouse, in vivo, sc, 50 mg/kg. This is another data set of the same source.

Where two headings read alike, the source gives them in different places. e = 2'-O-(2-methoxyethyl) (MOE); d = 2'-deoxy (DNA)

Consider “ISIS 412223: 5-10-5 MOE gapmer ACAGTTTCTGGCAGGCCTCG (sugars from the 5' end e5 d10 e5, backbone and methylation of C not given here)”, for which, in data set [1], the ALT is reported as 60 IU/L, the AST is recorded as 125 IU/L, the Bilirubin was 0.20 mg/dL and the Cholesterol was 117 mg/dL. In data set [2], the BUN was 24 mg/dL, the Creatinine is 46 mg/dL, the Total urine protein is listed as 224 mg/dL and the Urine protein/creatinine ratio is recorded as 4.6. In addition, in data set [3], the BUN worked out at 28 mg/dL. In data set [4], this substance displayed an HCT of 41%, a Lymphocyte of 16990, a Neutrophil of 1826 and a Platelets of 567. Also, in data set [4], the RBC is 7.2 10^6/μL, the WBC is 20 10^3/μL and the hemoglobin worked out at 13.1 g/dL. In data set [5], this substance registered an ALT of 85 IU/L, an AST of 180 IU/L, an Albumin of 5 and a Bilirubin of 0.14 mg/dL. For the same substance, in data set [6], the HCT came out at 48%, the Lymphocyte came to 4599 cells/μL, the Neutrophil was 1756 cells/μL and the Platelets is 862 10^3/μL. In data set [6], the RBC is reported as 9 10^6/μL, the WBC is reported as 7 10^3/μL, the hemoglobin turned out to be 15 g/dL and the monocytes amounted to 200 cells/μL.

Consider “ISIS 412224: 5-10-5 MOE gapmer GCATTGGTGCACAGTTTCTG (sugars from the 5' end e5 d10 e5, backbone and methylation of C not given here)”, for which, in data set [1], the ALT stood at 214 IU/L, the AST is given as 183 IU/L, the Bilirubin came to 0.19 mg/dL and the Cholesterol was 114 mg/dL. Besides, in data set [2], the BUN was 24 mg/dL, the Creatinine is 44 mg/dL, the Total urine protein came to 171 mg/dL and the Urine protein/creatinine ratio came to 3.8. The BUN in data set [3] turned out to be 29 mg/dL. In data set [4], the HCT came to 42%, the Lymphocyte worked out at 16807, the Neutrophil turned out to be 1865 and the Platelets is recorded as 685. Moreover, in data set [4], the RBC was 7.4 10^6/μL, the WBC was 20 10^3/μL and the hemoglobin was 13.4 g/dL. In data set [5], this substance had an ALT of 84 IU/L, an AST of 132 IU/L, an Albumin of 4 and a Bilirubin of 0.12 mg/dL. In data set [6], the HCT stood at 50%, the Lymphocyte turned out to be 6284 cells/μL, the Neutrophil amounted to 2107 cells/μL and the Platelets is 647 10^3/μL. In data set [6], the RBC was 10 10^6/μL, the WBC is on record as 9 10^3/μL, the hemoglobin is recorded as 15 g/dL and the monocytes was found to be 195 cells/μL.

For “ISIS 416849: MOE gapmer, nucleobases 1275 to 1318 of SEQ ID NO: 1 (Table 8) (antisense GCACAGTTTCTGGCAGGCCT; MOE gapmer, wing and gap sizes not given here)”, in data set [1], the ALT was 1056 IU/L, the AST is 582 IU/L, the Bilirubin was 0.22 mg/dL and the Cholesterol came out at 109 mg/dL. The same substance came in with a BUN in data set [3] of 23 mg/dL. Moreover, in data set [6], the HCT stood at 48%, the Lymphocyte worked out at 6967 cells/μL, the Neutrophil is listed as 1522 cells/μL and the Platelets is 744 10^3/μL. In data set [6], the RBC was 9 10^6/μL, the WBC is given as 9 10^3/μL, the hemoglobin is given as 14 g/dL and the monocytes was 253 cells/μL.

In data set [1], “ISIS 416853: MOE gapmer, nucleobases 1275 to 1318 of SEQ ID NO: 1 (Table 8) (antisense TTGGTGCACAGTTTCTGGCA; MOE gapmer, wing and gap sizes not given here)” registered an ALT of 1023 IU/L, an AST of 1087 IU/L, a Bilirubin of 0.25 mg/dL and a Cholesterol of 164 mg/dL. The same substance gave a BUN in data set [3] of 22 mg/dL. For the same substance, in data set [6], the HCT is given as 56%, the Lymphocyte is on record as 5184 cells/μL, the Neutrophil turned out to be 2040 cells/μL and the Platelets was 801 10^3/μL. Further, in data set [6], the RBC was 11 10^6/μL, the WBC is given as 8 10^3/μL, the hemoglobin is listed as 17 g/dL and the monocytes worked out at 225 cells/μL.

On to “ISIS 416854: MOE gapmer, nucleobases 1275 to 1318 of SEQ ID NO: 1 (Table 8) (antisense ATTGGTGCACAGTTTCTGGC; MOE gapmer, wing and gap sizes not given here)”, for which, in data set [1], the ALT was determined as 1613 IU/L, the AST was found to be 1140 IU/L, the Bilirubin is listed as 0.21 mg/dL and the Cholesterol is listed as 199 mg/dL. For the same substance, in data set [3], the BUN was 27 mg/dL. In addition, in data set [6], the HCT is on record as 43%, the Lymphocyte is 9375 cells/μL, the Neutrophil stood at 2082 cells/μL and the Platelets is 1060 10^3/μL. In data set [6], the RBC is 9 10^6/μL, the WBC was 12 10^3/μL, the hemoglobin is 13 g/dL and the monocytes is recorded as 455 cells/μL.

For the substance “ISIS 416855: MOE gapmer, nucleobases 1275 to 1318 of SEQ ID NO: 1 (Table 8) (antisense CATTGGTGCACAGTTTCTGG; MOE gapmer, wing and gap sizes not given here)”, in data set [1], the ALT was 786 IU/L, the AST is on record as 580 IU/L, the Bilirubin was determined as 0.25 mg/dL and the Cholesterol came out at 162 mg/dL. In data set [3], the BUN is 23 mg/dL. In addition, in data set [6], the HCT was determined as 50%, the Lymphocyte came out at 4236 cells/μL, the Neutrophil worked out at 1443 cells/μL and the Platelets is on record as 784 10^3/μL. In addition, in data set [6], the RBC was 9 10^6/μL, the WBC is 6 10^3/μL, the hemoglobin turned out to be 14 g/dL and the monocytes is 263 cells/μL.

Regarding “ISIS 416857: MOE gapmer, nucleobases 1275 to 1318 of SEQ ID NO: 1 (Table 8) (antisense CGGCATTGGTGCACAGTTTC; MOE gapmer, wing and gap sizes not given here)”, in data set [1], the ALT came to 370 IU/L, the AST is recorded as 269 IU/L, the Bilirubin is recorded as 0.22 mg/dL and the Cholesterol is reported as 94 mg/dL. In data set [3], this substance displayed a BUN of 17 mg/dL. Also, in data set [6], the HCT was 53%, the Lymphocyte came to 3697 cells/μL, the Neutrophil is reported as 1334 cells/μL and the Platelets was 603 10^3/μL. Also, in data set [6], the RBC is 10 10^6/μL, the WBC was 6 10^3/μL, the hemoglobin was 15 g/dL and the monocytes stood at 215 cells/μL.

For the substance “ISIS 416862: MOE gapmer, nucleobases 1275 to 1318 of SEQ ID NO: 1 (Table 8) (antisense AGCGGACGGCATTGGTGCAC; MOE gapmer, wing and gap sizes not given here)”, in data set [1], the ALT is given as 225 IU/L, the AST was 172 IU/L, the Bilirubin amounted to 0.36 mg/dL and the Cholesterol is reported as 103 mg/dL. Further, in data set [3], the BUN came to 21 mg/dL. For the same substance, in data set [6], the HCT stood at 49%, the Lymphocyte is listed as 4445 cells/μL, the Neutrophil is 1118 cells/μL and the Platelets is 1007 10^3/μL. Further, in data set [6], the RBC was 9 10^6/μL, the WBC is 6 10^3/μL, the hemoglobin turned out to be 14 g/dL and the monocytes amounted to 174 cells/μL.

In data set [1], “ISIS 416865: MOE gapmer, nucleobases 1275 to 1318 of SEQ ID NO: 1 (Table 8) (antisense TGGCAGCGGACGGCATTGGT; MOE gapmer, wing and gap sizes not given here)” had an ALT of 383 IU/L, an AST of 262 IU/L, a Bilirubin of 0.27 mg/dL and a Cholesterol of 95 mg/dL. The same substance gave a BUN in data set [3] of 20 mg/dL. Besides, in data set [6], the HCT is 50%, the Lymphocyte was determined as 5148 cells/μL, the Neutrophil is on record as 1227 cells/μL and the Platelets is on record as 872 10^3/μL. For the same substance, in data set [6], the RBC is on record as 9 10^6/μL, the WBC is listed as 7 10^3/μL, the hemoglobin is given as 14 g/dL and the monocytes came to 315 cells/μL.

For the origin of these results see patent publication US20230263822A1, “MODULATION OF FACTOR 11 EXPRESSION” (Ionis Pharmaceuticals, Inc., priority 2008, published 2023).
